Values joined by “and” are separate entries in the source; they are usually repeats but may differ in a detail not shown here. Equal entries are not always repeated.
Tests used:
[1] = Storage stability of crystalline forms (decomposition to Trandolaprilat diketopiperazine, by HPLC); assay type: physicochemical; conditions: for Amount of Trandolaprilat Diketopiperazine after Isolation and Drying of the Wet Product: before storage; for Tendency to decompose to Trandolaprilat Diketopiperazine on storage (in words): comparison of crystalline forms, Table 9
Method: Purity was determined by HPLC using a Luna C18 (150×4.6 mm, 3 μm; Manufacturer: Phenomenex, Torrence, Calif., USA) column, as well as a Symmetry C18(2) (150×4.6 mm, 3.5 μm; Manufacturer: Waters Corporation, Millford, Mass., USA) column using as mobile phase: Mobile phase A: 0.03% v/v of trifluoroacetic acid in water; Mobile phase B: 0.025% v/v of trifluoroacetic acid in acetonitrile; column temperature 30° C., flow rate: 1.5 ml/min, detection: UV 206 nm; eluent gradient: […]

[2] = Degradation to Trandolaprilat diketopiperazine in non-hydroxylic solvent (THF solution); assay type: physicochemical
Source text: Furthermore, crystallization and precipitation from non-hydroxylic solvents often provided a resin that could only be difficultly handled.

[3] = Solubility in n-butanol with and without water; assay type: physicochemical
Source text: In step (f), an amount of water is removed from the solution of step (e) that is sufficient for inducing crystallization of the Trandolaprilat and provide crystalline Trandolaprilat in a polymorphic or pseudopolymorphic form. Because Trandolaprilat is not soluble in anhydrous n-butanol, its crystallization from the organic layer can be initiated by removing the water, for example, by concentrating an n-butanol/water solution containing the Trandolaprilat using azeotropic distillation (to provide crystalline Trandolaprilat).

[4] = target: Angiotensin Converting Enzyme (ACE enzyme) (Homo sapiens, UniProt P12821); conditions: compared with Trandolapril; cited from earlier work
[5] = storage temperature 20-25, storage time 4 months

Angiotensin Converting Enzyme (ACE enzyme), sequence (P12821 30-1306, species assumed): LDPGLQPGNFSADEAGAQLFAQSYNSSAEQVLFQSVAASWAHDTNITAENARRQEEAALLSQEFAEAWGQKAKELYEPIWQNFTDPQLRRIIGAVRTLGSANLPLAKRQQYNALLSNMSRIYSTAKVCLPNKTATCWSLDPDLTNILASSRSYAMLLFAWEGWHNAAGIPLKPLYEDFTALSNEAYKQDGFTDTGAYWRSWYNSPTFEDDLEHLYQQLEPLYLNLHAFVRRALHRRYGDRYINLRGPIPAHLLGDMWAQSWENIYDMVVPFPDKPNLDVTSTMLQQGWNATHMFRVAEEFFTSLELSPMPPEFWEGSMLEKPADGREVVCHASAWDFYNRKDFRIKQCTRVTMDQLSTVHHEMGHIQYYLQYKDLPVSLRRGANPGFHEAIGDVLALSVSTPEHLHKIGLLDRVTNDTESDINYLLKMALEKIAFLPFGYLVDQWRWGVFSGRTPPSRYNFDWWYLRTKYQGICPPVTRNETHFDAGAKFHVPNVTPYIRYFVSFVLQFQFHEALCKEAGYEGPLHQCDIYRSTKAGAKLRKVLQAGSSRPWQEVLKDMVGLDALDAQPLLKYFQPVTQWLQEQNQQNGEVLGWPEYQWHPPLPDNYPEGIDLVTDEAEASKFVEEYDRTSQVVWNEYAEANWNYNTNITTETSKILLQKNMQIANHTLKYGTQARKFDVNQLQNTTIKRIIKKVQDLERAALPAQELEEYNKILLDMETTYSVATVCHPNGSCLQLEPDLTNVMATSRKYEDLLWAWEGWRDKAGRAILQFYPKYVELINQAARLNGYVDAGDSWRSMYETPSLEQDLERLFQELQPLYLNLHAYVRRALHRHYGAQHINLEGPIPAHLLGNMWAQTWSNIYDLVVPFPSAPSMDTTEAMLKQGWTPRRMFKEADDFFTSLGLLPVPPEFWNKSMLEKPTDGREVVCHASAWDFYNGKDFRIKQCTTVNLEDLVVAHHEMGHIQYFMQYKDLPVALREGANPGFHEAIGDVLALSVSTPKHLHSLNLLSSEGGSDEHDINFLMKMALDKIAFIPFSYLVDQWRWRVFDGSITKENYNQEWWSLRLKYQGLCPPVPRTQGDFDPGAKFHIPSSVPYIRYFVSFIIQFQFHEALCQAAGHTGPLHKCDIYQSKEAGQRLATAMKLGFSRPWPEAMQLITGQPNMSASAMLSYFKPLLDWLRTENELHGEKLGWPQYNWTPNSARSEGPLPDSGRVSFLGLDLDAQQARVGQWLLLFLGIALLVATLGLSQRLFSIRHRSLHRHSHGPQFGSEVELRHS

Row | Compound | Amount of Trandolaprilat Diketopiperazine after Isolation and Drying of the Wet Product [1] | Tendency to decompose to Trandolaprilat Diketopiperazine on storage (in words) [1] | Amount of Trandolaprilat Diketopiperazine after Storage [1, 5] [% by HPLC] | Formation of degradation product Trandolaprilat diketopiperazine ([2]; THF solution heated at reflux temperature) | Rate of degradation to Trandolaprilat diketopiperazine ([2]; dissolved in THF, room temperature) | Solubility ([3]; anhydrous n-butanol) | Solubility ([3]; free amino acid form, n-butanol saturated with water) | Potency as an inhibitor of ACE activity relative to Trandolapril [4] | Amount of Trandolaprilat Diketopiperazine after Storage ([1]; storage temperature 4-8, storage time 3 months) [% by HPLC] | Amount of Trandolaprilat Diketopiperazine after Storage ([1]; storage temperature 20-25, storage time 3 months) [% by HPLC]
1 | C[C@H](N[C@@H](CCc1ccccc1)C(=O)O)C(=O)N1[C@H](C(=O)O)C[C@H]2CCCC[C@@H]21 [Form C, Trandolaprilat] | Not Detected | significantly lower | 0.26 | – | – | – | – | – | – | –
2 | C[C@H](N[C@@H](CCc1ccccc1)C(=O)O)C(=O)N1[C@H](C(=O)O)C[C@H]2CCCC[C@@H]21 [Form A, Trandolaprilat] | Not Detected | only a very low quantity of the degradation product | 0.02 | – | – | – | – | – | – | –
3 | C[C@H](N[C@@H](CCc1ccccc1)C(=O)O)C(=O)N1[C@H](C(=O)O)C[C@H]2CCCC[C@@H]21 [Trandolaprilat] | – | – | – | almost complete within a few hours | at least 0.2 % per hour | not soluble | soluble | about eight times more potent than Trandolapril | – | –
4 | C[C@H](N[C@@H](CCc1ccccc1)C(=O)O)C(=O)N1[C@H](C(=O)O)C[C@H]2CCCC[C@@H]21 [Form D, Trandolaprilat] | Not Detected | only a very low quantity of the degradation product | 0.03 | – | – | – | – | – | – | –
5 | C[C@H](N[C@@H](CCc1ccccc1)C(=O)O)C(=O)N1[C@H](C(=O)O)C[C@H]2CCCC[C@@H]21 [Form B, Trandolaprilat] | Not Detected | significantly lower | 0.20 | – | – | – | – | – | – | –
6 | C[C@H](N[C@@H](CCc1ccccc1)C(=O)O)C(=O)N1[C@H](C(=O)O)C[C@H]2CCCC[C@@H]21 [Form E, Trandolaprilat] | 0.34 %, by HPLC and 0.19 %, by HPLC | greater tendency to decompose | – | – | – | – | – | – | 0.75 | 0.92

From US7943655B2, “Polymorphic and pseudopolymorphic forms of trandolaprilat, pharmaceutical compositions and methods for production and use” (Universitat Zurich, priority 2006, dated 2011)
